PMC10525445, “Antitrypanosomal Activity of 1,2,3-Triazole-Based Hybrids Evaluated Using In Vitro Preclinical Translational Models” (Biology, 2023)
“Also recorded” adds a separate entry of the source. Like-named read-outs stand apart in the source and are kept apart here.

Tests used:
Type in all cases: cell-based, Trypanosoma cruzi
[1] = tested on: intracellular amastigote forms of T. cruzi (Dm28c-Luc); experiment: Activity against intracellular amastigotes in infected VERO cells (72 h); details: for Intracellular Amastigotes SI: SI = CC50 of VERO cells/IC50 of intracellular amastigotes; for IC50 / IC90: infected VERO cells, 72 h, mean ± SD; for IC50: read-out: Trypanocidal Activity Intracellular Amastigotes IC50; for IC90: read-out: Trypanocidal Activity Intracellular Amastigotes IC90
Protocol: (§1) A drug screen was carried out with Trypanosoma cruzi clone Dm28c genetically modified to express luciferase (Dm28c-luc), kindly provided by Dr. Cristina Henriques. The genetically modified T. cruzi clone Dm28c (Dm28c-Luc) has the firefly luciferase gene integrated into the genome, stably expressing the luminescent enzyme. The bioluminescent signal, proportional to the number of parasites, is produced by adding a D-luciferin substrate. Trypomastigotes were harvested from supernatants of VERO cell cultures, infected at a ratio of 10:1 parasite/host cells, 4 days post-infection (4 dpi). Parasites were used for phenotypic drug screening procedures. Luminescent parasites are a reliable and sensitive tool that allows precise quantification of parasite load. The use of genetically modified organisms was approved under license CQB 105/99.
Activity against intracellular amastigotes was determined in cultures of VERO cells infected by T. cruzi (24 h), as previously described. Briefly, infected cultures were treated for 72 h at 37 °C with different concentrations of triazole derivatives (0.04–100 µM). Then, the culture supernatant was removed, and the viability of the intracellular parasites was evaluated after adding luciferin (300 µg/mL) to the cell monolayer followed by reading using the microplate reader. Anti-T. cruzi activity (IC50 and IC90) and SI values were determined. All experimental assays were performed at least 3 times in duplicate.

[2] = tested on: T. cruzi Dm28c-Luc in 3D cardiac spheroids; experiment: Drug efficacy in T. cruzi-infected 3D cardiac spheroids; details: 72 h, 15 to 30 times the IC50, 1f maximum 50 µM
Protocol: Primary heart muscle cell cultures were obtained from fetuses of female Swiss Webster mice, as previously described. After heart removal and ventricle fragmentation, tissue fragments were dissociated in a trypsin and collagenase type II (Worthington Biochemical Corporation, Lakewood, USA) dissociation solution. For two-dimensional (2D) cultures, the isolated cardiac cells were seeded at a density of 5 × 10^4 cells/well in gelatin (0.1%)-coated 96-well white culture plates. Three-dimensional (3D) cardiac spheroids were obtained after seeding isolated heart muscle cells at a density of 2.5 × 10^4 cells/well in an agarose (1%)-coated 96-well U-bottom plate, as described in [35]. Heart muscle cells cultures were cultivated in Dulbecco’s modified Eagle medium (DMEM) supplemented with 7% FBS, 2.5 mM CaCl2, 2% embryo extract, and 1 mM L-glutamin and maintained at 37 °C in a humidified atmosphere of 5% CO2. All procedures with animals were approved by the Animal Care and Use Committee at the Oswaldo Cruz Institute (license L-017/2022).
A three-dimensional cardiac model was applied as a cell culture platform to test the efficacy of promising candidates. […] Microtissues were also incubated with DMSO (0.1%) and Bz (100 µM) as negative and positive controls, respectively. After luciferin addition (300 µg/mL), the luminescence was measured, and the data were expressed as arbitrary luminescence units (ALU).

[3] = tested on: intracellular amastigote of T. cruzi Dm28c-Luc; experiment: Drug combination assay with Bz (isobologram); details: for xΣFICI (average of the sums of fractional inhibitory concentration index): combination with Bz, six ratios, additive xΣFICI > 0.5–1; for interaction with Bz: isobologram, intracellular amastigote
Protocol: The combination of promising candidates and Bz was performed using an isobologram method. Initial concentrations were determined by ensuring that IC50 concentrations of monotherapy compounds remained close to half in serial dilutions (1:3–6 concentrations). Solutions at the initial concentration of each compound were prepared and then mixed in proportions of 5:0, 4:1, 3:2, 2:3, 1:4, and 0:5 (v/v) of promising compounds and Bz, respectively. The anti-T. cruzi activity for the serial dilutions (1:3) of the ratios was then analyzed, as previously described. The IC50 values for each combination were used to determine the fractional inhibitory concentration index (FICI); thus, FICI(A) = IC50(A) in combination/IC50(A) alone and FICI(B) = IC50(B) in combination/IC50(B) alone. In addition, the sum of the FICIs for each proportion (∑FICI = FICI(A) + FICI(B)) and the average of the sums for the FICIs (xΣFICI) were calculated. The FICI values were plotted on an isobologram graph. The xΣFICI was applied as a classification criterion for interactions: as synergistic xΣFICI ≤ 0.5, additive xΣFICI > 0.5–1, without interaction xΣFICI > 1–4, and antagonistic for xΣFICI > 4.

[4] = tested on: T. cruzi (Dm28c-Luc)-infected VERO cells; experiment: Short-term washout assay (3 days treatment, 3 days without compound)
Protocol: A washout assay was performed to evaluate the capacity of the promising candidates to eliminate all parasites. Thus, VERO cells, seeded in 96-well plates at a density of 1.5 × 10^4 cells/well, were infected with T. cruzi (Dm28c-Luc) at a 10:1 parasite–host cell ratio (24 h). Two treatment schedules were performed: 3 days with 30, 50, and 100 µM concentrations and 10 days with 30 and 60 times the IC50 concentrations. After treatment, the cultures were washed with PBS and kept for the same period in RPMI 1640 medium supplemented with 10% FBS without compound pressure. The culture medium was changed every 3 or 4 days during the time course, and the supernatant was harvested for luminescence reading after luciferin (300 µg/mL) addition. At the endpoint, the monolayers were also evaluated for parasite load. The luminescent signal was read using a Glomax reader. Bz (100 µM) and DMSO (≤1%) were used as positive and negative controls, respectively.

[5] = target: trypomastigote forms of T. cruzi (Dm28c-Luc); experiment: Trypanocidal activity against trypomastigotes (luciferase luminescence, 24 h); details: for Trypomastigotes SI: SI = CC50 of VERO cells/IC50 of trypomastigotes; for increase of activity compared with 1g (times): trypomastigotes
Protocol: as §1
All triazole analogs were analyzed for their biological activity against trypomastigote and intracellular amastigote forms of T. cruzi (Dm28c-Luc). Trypomastigotes (1.0 × 10^6 parasites/well) were incubated for 24 h at 37 °C with triazole derivatives and Bz at concentrations ranging from 0.04 to 100 µM. Luciferin (300 µg/mL), a luciferase substrate, was added to parasite suspensions to evaluate trypomastigotes viability. The luminescent signal was measured using a Glomax microplate reader. A maximal DMSO concentration (0.1%) was used as the negative control. The inhibitory concentration 50 (IC50) and 90 (IC90) against T. cruzi, which reduces the number of parasites by 50% and 90%, respectively, was calculated using linear regression. The selectivity index (SI), a ratio that measures the window between toxicity in mammalian cells and anti-T. cruzi activity (SI = CC50/IC50), was also determined.

[6] = Trypanosoma cruzi, Dm28c-Luc, 24 h, mean ± SD
[7] = Trypanosoma cruzi, Dm28c-Luc, 24 h, mean ± SD, read-out: Trypanocidal Activity Trypomastigotes IC50
[8] = Trypanosoma cruzi, Dm28c-Luc, 24 h, read-out: pIC50 against trypomastigotes (converted)

Compound	Intracellular Amastigotes SI [1]	parasite load in 3D cardiac microtissue (luminescence) [2]	xΣFICI (average of the sums of fractional inhibitory concentration index) [3]	interaction with Bz [3]	Trypomastigotes SI [5]	increase of activity compared with 1g (times) [5] [times]	IC50 ([1]; Trypanosoma cruzi) [µM]	IC90 ([1]; Trypanosoma cruzi) [µM]	IC90 [5, 6] [µM]	IC50 [5, 7] [µM]	IC50 [5, 8] [µM]	other results
4-Phenyl-1-(m-tolyl)-1H-1,2,3-triazole [Triazole 1f]	24.8	significantly inhibited the viability of the parasites; also recorded: significantly reduce the parasite load	0.88	additive effect	70.5	1.8	–	–	–	–	–	IC50 [1]: 3.5 ± 0.39 µM; IC90 [1]: 30.4 ± 0.4 µM; effect on parasite load ([4]; 30 µM): did not significantly reduce the parasite load; fold reduction in parasite load compared to untreated cultures ([4]; 50 µM): ~12 fold; parasite resurgence ([4]; 50 µM): did not prevent parasite resurgence; pIC50 against trypomastigotes ([5]; Dm28c-Luc, 24 h): 5.91; IC90 ([5]; Dm28c-Luc, 24 h, mean ± SD): 3.68 ± 0.6 µM; IC50 ([5]; Dm28c-Luc, 24 h, mean ± SD, read-out: Trypanocidal Activity Trypomastigotes IC50): 1.23 ± 0.24 µM
COc1ccc(-n2cc(-c3ccccc3)nn2)cc1 [Triazole 1d, 1-(4-Methoxyphenyl)-4-phenyl-1H-1,2,3-triazole]	>152	significantly inhibited the viability of the parasites; also recorded: significantly reduce the parasite load	0.93	additive effect	>2380	11	3.27 ± 0.9	> 100	2.9 ± 0.16	0.21 ± 0.03	0.214	fold reduction in parasite load compared to untreated cultures ([4]; 100 µM): approximately 10 fold; parasite resurgence ([4]; 100 µM): did not prevent parasite resurgence
c1ccc(-c2cn(-c3ccccc3)nn2)cc1 [Triazole 1g, 1-(4-Diphenyl)-1H-1,2,3-triazole]	>80.6	did not effectively decrease the total number of viable intracellular parasites	0.90	additive effect	>219	–	6.2 ± 1.06	> 100	> 100	2.28 ± 0.34	2.29	effect on parasite load / infection progression ([4]; 100 µM): did not significantly reduce the parasite load
